From ChEMBL document CHEMBL5230102, “Bicyclic polyprenylated acylphloroglucinols and their derivatives: structural modification, structure-activity relationship, biological activity and mechanism of action” (Eur J Med Chem, 2020)
Values after ≈ are worked out from the molar mass of the structure shown.

How the values were obtained:
HCT-116 = test: Cytotoxicity against human HCT-116 cells assessed as inhibition of cell growth; format: functional, cell-based
HeLa = test: Cytotoxicity against human HeLa cells assessed as inhibition of cell growth; format: functional, cell-based
SGC-7901 = test: Cytotoxicity against human SGC-7901 cells assessed as inhibition of cell growth; format: functional, cell-based
Staphylococcus aureus [1] = test: Antibacterial activity against methicillin resistant Staphylococcus aureus USA300; format: functional
Plasmodium falciparum = test: Antimalarial activity against Plasmodium falciparum; format: functional, organism-based
Staphylococcus aureus [2] = test: Antibacterial activity against Staphylococcus aureus; format: functional, organism-based

Row | Compound | IC50 (HCT-116) [µg/mL] | IC50 (HeLa) [µg/mL] | IC50 (SGC-7901) [µg/mL] | MIC (Staphylococcus aureus [1]) [µg/mL] | further results
1 | CC(C)=CCC/C(C)=C/C[C@@H]1C[C@]2(C/C=C(\C)CCC=C(C)C)C(=O)[C@@](CC=C(C)C)(C(=O)C(C(=O)c3ccc(O)c(O)c3)=C2O)C1(C)C | 4.92 (≈ 7.33 µM) | 8.09 (≈ 12.1 µM) | 4.05 (≈ 6.04 µM) |  | 
2 | C=C(C)[C@H](CC=C(C)C)C[C@]12C[C@H](CC=C(C)C)C(C)(C)[C@](CC=C(C)C)(C(=O)C(C(=O)c3ccc(O)c(O)c3)=C1O)C2=O |  |  |  | 7 (≈ 11.6 µM) | 
3 | CC(C)=CC[C@@H]1C[C@]23C[C@@H](CC=C(C)C)C(C)(C)[C@](CC=C(C)C)(C(=O)C(C(=O)c4ccc(O)c(O)c4)=C2OC1(C)C)C3=O |  |  |  | > 30 | 
4 | CC(C)=CCC/C(C)=C/C[C@]12C[C@@H](CC=C(C)C)C(C)(C)[C@](CC=C(C)C)(C(=O)C(C(=O)c3ccc(O)c(O)c3)=C1O)C2=O | 8.6 (≈ 14.3 µM) | 11.7 (≈ 19.4 µM) | 5.48 (≈ 9.09 µM) |  | 
5 | CC(C)=CC[C@@H]1C[C@]2(CC=C(C)C)C(=O)[C@@](CC=C(C)C)(C(=O)C(C(=O)c3ccccc3)=C2O)C1(C)C | 6.87 (≈ 13.7 µM) | 12 (≈ 23.8 µM) | 12 (≈ 23.8 µM) |  | 
6 | CC1(C)[C@H](Cc2ccccc2)C[C@@]2(Cc3ccccc3)C(=O)[C@]1(C)C(=O)C(C(=O)c1ccccc1)=C2O |  |  |  | > 30 | 
7 | CC(=O)C1=C(O)[C@@]2(CC=C(C)C)C[C@@H](CC=C(C)C)C(C)(C)[C@@](CC=C(C)C)(C1=O)C2=O |  |  |  | 1 (≈ 2.27 µM) | 
8 | C=CC[C@@]12C[C@@H](CC=C(C)C)C(C)(C)[C@@](CC=C)(C(=O)C(C(C)=O)=C1O)C2=O |  |  |  | 2 (≈ 5.2 µM) | 
9 | C=CC[C@@]12C(=O)C(C(=O)c3ccccc3)=C(O)[C@@](Cc3ccccc3)(C[C@@H](CC=C(C)C)C1(C)C)C2=O |  |  |  | 4 (≈ 8.05 µM) | 
10 | CC(C)=CCC/C(C)=C/C[C@]12C(=O)CC(=O)[C@](CC=C(C)C)(C[C@@H](CC=C(C)C)C1(C)C)C2=O | 10.9 (≈ 23.4 µM) | 11.7 (≈ 25 µM) | 8.5 (≈ 18.2 µM) |  | 
11 | CC(C)=CCC(=O)C1=C(O)[C@@]2(C)C[C@@H](CC=C(C)C)C(C)(C)[C@@](CC=C(C)C)(C1=O)C2=O |  |  |  | 4 (≈ 9.08 µM) | 
12 | CC(C)=CC[C@@]12C[C@@H](Cc3ccccc3)C(C)(C)[C@@](C)(C(=O)C(C(=O)c3ccccc3)=C1O)C2=O |  |  |  | > 30 | 
13 | CC(C)=CC[C@@]12C[C@@H](Cc3ccccc3)C(C)(C)[C@@](CC=C(C)C)(C(=O)C(C(=O)c3ccccc3)=C1O)C2=O |  |  |  | 4 (≈ 7.62 µM) | 
14 | C=CC[C@@]12C[C@@H](CC=C(C)C)C(C)(C)[C@@](CC=C)(C(=O)C(C(=O)C(C)C)=C1O)C2=O |  |  |  | 2 (≈ 4.85 µM) | 
15 | CC(C)=CCC/C(C)=C/C[C@]12C[C@@H](CC=C(C)C)C(C)(C)[C@](C/C=C(\C)CCC=C(C)C)(C(=O)CC1=O)C2=O | > 20 | > 20 | > 20 |  | 
16 | C=CC[C@@]12C(=O)C(C(=O)C(C)C)=C(O)[C@@](Cc3ccccc3)(C[C@@H](CC=C(C)C)C1(C)C)C2=O |  |  |  | 1 (≈ 2.16 µM) | 
17 | C=CC[C@@]12C(=O)C(C(C)=O)=C(O)[C@@](Cc3ccccc3)(C[C@@H](CC=C(C)C)C1(C)C)C2=O |  |  |  | 1 (≈ 2.3 µM) | 

Row | Compound | IC50 (HCT-116) [µg/mL] | IC50 (HeLa) [µg/mL] | IC50 (SGC-7901) [µg/mL] | MIC (Staphylococcus aureus [1]) [µg/mL] | further results
18 | CC(C)=CC[C@@H]1C[C@@]2(Cc3ccccc3)C(=O)[C@](C)(C(=O)C(C(=O)c3ccccc3)=C2O)C1(C)C |  |  |  | > 30 | 
19 | CC(C)=CC[C@@]12C(=O)C(C(=O)c3ccccc3)=C(O)[C@@](Cc3ccccc3)(C[C@@H](Cc3ccccc3)C1(C)C)C2=O |  |  |  | 4 (≈ 7.32 µM) | 
20 | CC(=O)C1=C(O)[C@@]2(Cc3ccccc3)C[C@@H](CC=C(C)C)C(C)(C)[C@@](CC=C(C)C)(C1=O)C2=O |  |  |  | 0.5 (≈ 1.08 µM) | 
21 | CC(C)=CCC/C(C)=C/C[C@@H]1C[C@@]2(CC=C(C)C)C(=O)CC(=O)[C@](CC=C(C)C)(C2=O)C1(C)C | 9.14 (≈ 19.6 µM) | 9.69 (≈ 20.8 µM) | 6.89 (≈ 14.8 µM) |  | 
22 | CC(C)=CCC/C(C)=C/C[C@]12C[C@@H](CC=C(C)C)C(C)(C)[C@](CC=C(C)C)(C(=O)CC1=O)C2=O | 6.46 (≈ 13.8 µM) | 6.64 (≈ 14.2 µM) | 5.6 (≈ 12 µM) |  | 
23 | CC(C)=CC[C@@H]1C[C@@]2(CC=C(C)C)C(=O)[C@](CC=C(C)C)(C(=O)C(C(=O)C(C)C)=C2O)C1(C)C |  |  |  | 2 (≈ 4.27 µM) | 
24 | CC(C)=CC[C@H]1C[C@@]2(CC=C(C)C)C(=O)c3c(oc4cc(O)c(O)cc4c3=O)[C@](CC=C(C)C)(C2=O)C1(C)C | 5.96 (≈ 11.2 µM) | 7.65 (≈ 14.4 µM) | 7.65 (≈ 14.4 µM) |  | 
25 | CC(C)=CC[C@@H]1C[C@@]2(Cc3ccccc3)C(=O)[C@](CC=C(C)C)(C(=O)C(C(=O)c3ccccc3)=C2O)C1(C)C |  |  |  | 1 (≈ 1.91 µM) | 
26 | CC(C)=CCC(=O)C1=C(O)[C@@]2(Cc3ccccc3)C[C@@H](CC=C(C)C)C(C)(C)[C@@](CC=C(C)C)(C1=O)C2=O |  |  |  | 2 (≈ 3.87 µM) | 
27 | CC(C)=CCC/C(C)=C/C[C@@H]1C[C@@]2(C/C=C(\C)CCC=C(C)C)C(=O)CC(=O)[C@](CC=C(C)C)(C2=O)C1(C)C | > 20 | > 20 | > 20 |  | 
28 | CC(C)=CCC1=C(O)[C@@]2(C(=O)c3ccccc3)C(=O)[C@](CC=C(C)C)(C[C@H](CC=C(C)C)C2(C)C)C1=O |  |  |  |  | IC50 (Plasmodium falciparum): < 1000 nM; IC50 (Staphylococcus aureus [2]): < 1000 nM
29 | CC(C)=CC[C@H]1C[C@@]2(CC=C(C)C)C(=O)c3c(oc4c(O)c(O)ccc4c3=O)[C@](CC=C(C)C)(C2=O)C1(C)C | 2.44 (≈ 4.58 µM) | 4.69 (≈ 8.8 µM) | 4.69 (≈ 8.8 µM) |  | 
30 | CC(C)=CC[C@@H]1C[C@@]2(CC=C(C)C)C(=O)[C@](C)(C(=O)C(C(=O)c3ccccc3)=C2O)C1(C)C |  |  |  | > 30 | 
31 | CC(C)=CC[C@@H]1C[C@]2(CC=C(C)C)C(=O)C(C(=O)c3ccccc3)=C3O[C@H](C(C)(C)O)C[C@]3(C2=O)C1(C)C |  |  |  | 4 (≈ 7.71 µM) | 
32 | CC(C)=CC[C@@H]1C[C@@]2(CC=C(C)C)C(=O)[C@](CC=C(C)C)(C(=O)C(C(=O)c3ccccc3)=C2O)C1(C)C [CLUSIANONE] |  |  |  | 1 (≈ 1.99 µM) | 
33 | CC(C)=CCC/C(C)=C/C[C@]12C[C@@H](CC=C(C)C)C(C)(C)[C@](C/C=C(\C)CCC=C(C)C)(C(=O)C(C(=O)c3ccc(O)c(O)c3)=C1O)C2=O [GUTTIFERONE O] | > 20 | > 20 | > 20 |  | 
34 | CC(C)=CCC/C(C)=C/C[C@@H]1C[C@]2(CC=C(C)C)C(=O)[C@@](CC=C(C)C)(C(=O)C(C(=O)c3ccc(O)c(O)c3)=C2O)C1(C)C [OBLONGIFOLIN B] | > 20 | > 20 | > 20 |  | 
